Source: patent US10774080B2, “Pyrimidine compound as JAK kinase inhibitor” (THERAVANCE BIOPHARMA R&D IP, LLC, priority 2017, dated 2020)

Legend:
[1] = test system: IL-22 stimulated STAT3 phosphorylation in normal human epidermal keratinocytes; experiment: Assay 14: inhibition of IL-22 stimulated pSTAT3 in normal human epidermal keratinocytes; assay type: cell-based; conditions: Keratinocyte, read-out: pIC50 for inhibition of IL-22 induced STAT3 phosphorylation (converted)
Description: Assay 14: Inhibition of IL-22 Stimulated pSTAT3 in Normal Human Epidermal Keratinocytes
The potency of test compounds for inhibition of interleukin-22 (IL-22) stimulated STAT3 phosphorylation was measured in the normal human epidermal keratinocytes (ATCC) using AlphaLisa. Phosphorylated STAT3 was measured via the AlphaLISA SureFire Ultra pSTAT3 (Tyr705) kit (PerkinElmer).
Primary epidermal keratinocytes were cultured in a 37° C., 5% CO2 humidified incubator in dermal cell basal medium (ATCC) supplemented with keratinocyte growth kit (ATCC) and 1× Pen/Strep (Life Technologies). […]
After cytokine stimulation, cells were lysed with 5 ul of 5× AlphaLisa Lysis Buffer (PerkinElmer) containing 1× PhosStop and Complete tablets (Roche). […] Phosphorylated STAT3 was measured via the pSTAT3 AlphaLisa kit (PerkinElmer). […] Luminescence was measured with excitation at 689 nm and emission at […] using an EnVision plate reader (PerkinElmer) under green filtered <100 lux light.
Luminescence signals were recorded and utilized to calculate the percent inhibition values based on DMSO and controls. For dose-response analysis, percent inhibition data were plotted vs. compound concentrations, and IC50 values were determined from a 4-parameter robust fit model with the Prism software.

in vitro = in vitro ADME; conditions: human, microsomes
Description: Assay 17: Human Liver Microsome Assay The objective of this assay was to assess the metabolic stability of test compounds in an in vitro human liver sub-fraction. Human liver microsomes obtained from Bioreclamation-IVT (Baltimore, Md.) were thawed on ice and diluted into 0.1M potassium phosphate buffer pH 7.4 to yield final incubation protein concentrations of 0.1 mg/mL. […] Incubations were conducted at 37° C. temperature and test aliquots were taken at time points 0, 5, 8, 15, 30 and 45 minutes. […] The resulting samples were injected onto an LC-MS/MS system for analysis. For each incubation, the peak area of the analytes in each t0 aliquot was set to 100% and the peak areas from subsequent time point aliquots were converted to percentage of parent compound remaining relative to t0. The percentage of parent compound remaining was converted to natural log scale and plotted versus time in minutes. A linear regression analysis was performed for the initial decline of the parent disappearance profile and a formula for the best-fit line determined. The slope of the resultant line was normalized to protein concentration in mg/mL protein or number of cells/mL and CLint was calculated as follows for liver microsomes: CLint (μL·min^−1·mg^−1)=(Slope×1000)/[protein,mg/mL]

CCS(=O)(=O)N1[C@@H]2CCC[C@H]1C[C@H](N(C)c1nc(CO)c(F)c(Nc3cc(C)[nH]n3)n1)C2 [Compound (I), (2-(((1R,3s,5S)-9-(ethylsulfonyl)-9-azabicyclo[3.3.1]nonan-3-yl)(methyl)amino)-5-fluoro-6-((5-methyl-1H-pyrazol-3-yl)amino)pyrimidin-4-yl)methanol]
IC50 [1]: 3.98 nM
microsomal CLint at 0.1 μM (in vitro; pH 7.4, HLM Clint): 136 µL/min/mg
microsomal CLint at 0.1 μM (in vitro; pH 7.4, clearance class in human microsomes): > 50 µL/min/mg
